The values that follow come from paper PMC10505172, “Discovery and pharmacophoric characterization of chemokine network inhibitors using phage-display, saturation mutagenesis and computational modelling” (Nature Communications, 2023).

Read-outs that look alike come from different tables or passages of the source. Ends that are not written are not given here.

The target of assay [1] is T1, CXCL10 (Homo sapiens, UniProt P02778).
T1 construct: purchased Peprotech 300-12
Description: Biolayer interferometry cross-binding screen. The note with it: 1 μM chemokine, fusion 1 mg/mL immobilised; specific if Rmax exceeded 3 times Rmax of SUMO:HD2SCR; two independent experiments. The procedure: (§1) The binding of His-SUMO tagged peptide fusions to various chemokines (Supplementary Table 3) was investigated by biolayer interferometry (BLI) using Ni-NTA biosensors (18-5101, ForteBio). All BLI data were obtained at 25 °C using a ForteBio-Sartorius Octet RED 384 instrument and Octet 384-well tilted bottom microplate (18-5080, Sartorius). The biosensors were preincubated overnight at room temperature in BLI buffer (PBS, 500 mM NaCl, 0.01% BSA (A7638, Sigma) + 0.002% Tween (P2287, Sigma)). His-SUMO tagged peptide fusions at 1 mg/mL (for cross-binding screen assay) and at 0.25 mg/mL (for kinetic assays) were immobilised on the Ni-NTA biosensors for 500 s using the BLI buffer. The HIS:SUMO fusion-loaded biosensors were then washed in the BLI buffer to allow signal stabilisation. To study the association with the analyte (chemokines), the biosensors were then dipped in chemokine solutions of various concentrations (1 μM for cross-binding screen assays, a range of 25–750 nM for kinetic assays) made in the BLI buffer, for either 300 s for cross-binding screen assays, or 600 s for kinetic assays. This was followed by the dissociation step, where the biosensors were incubated in BLI buffer for 300 s for screening assays and 600 s for kinetic assays. For chemokine cross-binding screens, wavelength shift was normalised by subtracting the signal from buffer control, and normalising the highest Rmax (i.e., with CCL8 and HD2) obtained in the experiment to 1. Kinetic data was analysed using buffer subtracted wavelength shift and a 1:1 binding model. […]
(§2) independent experiments. Plots display normalised wavelength shift (y axis; nm) versus time (x-axis; seconds). Vertical dotted line indicates the onset of dissociation. Cross-binding experiments (at 1 uM chemokine concentration) were performed with a panel of chemokines (see Supplementary information
(§3) Table 3). […] Chemokine names are indicated. […]
(§4) specific binding in two independent experiments are shown. […]

The target of assay [2] is T2, CCL7 (Homo sapiens, UniProt P80098).
T2 construct: purchased Peprotech 300-17
In words: Biolayer interferometry cross-binding screen. The following applies: 1 μM chemokine, fusion 1 mg/mL immobilised; specific if Rmax exceeded 3 times Rmax of SUMO:HD2SCR; two independent experiments. The procedure:
as §1, §2, §3, §4

For assay [3], the target named is T3, CCL5 (Homo sapiens, UniProt P13501).
T3 construct: purchased Peprotech 300-06
T3 sequence (P13501 24-91): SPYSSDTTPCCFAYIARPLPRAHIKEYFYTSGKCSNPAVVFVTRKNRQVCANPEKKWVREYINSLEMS
Description: Biolayer interferometry cross-binding screen. The following applies: 1 μM chemokine, fusion 1 mg/mL immobilised; specific if Rmax exceeded 3 times Rmax of SUMO:HD2SCR; two independent experiments. How it is done: as §1, §2, §3, §4
In general terms: BLI is a label-free optical method that tracks binding on a fibre tip over time.

Assay [4] concerns CCL1. In words: Biolayer interferometry cross-binding screen. Further details: species or system human. The note with it: 1 μM chemokine, fusion 1 mg/mL immobilised; specific if Rmax exceeded 3 times Rmax of SUMO:HD2SCR; two independent experiments. How it is done:
as §1, §2, §3, §4

For assay [5], the system named is CXCL13. In words: Biolayer interferometry cross-binding screen. The note with it: 1 μM chemokine, fusion 1 mg/mL immobilised; specific if Rmax exceeded 3 times Rmax of SUMO:HD2SCR; two independent experiments. Also noted: species or system human. How it is done:
as §1, §2, §3, §4

Assay [6] concerns CCL11. In words: Biolayer interferometry cross-binding screen. The following applies: 1 μM chemokine, fusion 1 mg/mL immobilised; specific if Rmax exceeded 3 times Rmax of SUMO:HD2SCR; two independent experiments. Further details: species or system human. How it is done:
as §1, §2, §3, §4

Assay [7] concerns the target T4, CCL8 (Homo sapiens, UniProt P80075).
T4 construct: purchased Peprotech 300-15
T4 sequence (P80075 24-99): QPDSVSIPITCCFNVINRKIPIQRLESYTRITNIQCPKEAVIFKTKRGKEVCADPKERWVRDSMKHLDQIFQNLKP
Description: Biolayer interferometry, His-SUMO peptide fusion binding to chemokine. An excerpt:
We next evaluated the ability of the exemplar peptide HD2 to bind a panel of chemokines (Supplementary Table 3) using biolayer interferometry (BLI). We generated HD2 and a scrambled control (HD2SCR) as HIS:SUMO fusion proteins in E.coli. This approach results in soluble proteins that can be immobilised on to BLI sensors through the N-terminal HIS tag. […] The binding of HD2 to these chemokines was characterised at different chemokine doses to evaluate binding affinity (KD). […] As chemokines are known to oligomerize in solution and also upon glycosaminoglycan binding, the most parsimonious explanation for this binding profile is chemokine oligomerization at the BLI sensor. […] The most likely explanation is that multivalent phage peptide-display allows identification of lower affinity interactions in comparison to BLI[40].
The binding of His-SUMO tagged peptide fusions to various chemokines (Supplementary Table 3) was investigated by biolayer interferometry (BLI) using Ni-NTA biosensors (18-5101, ForteBio). All BLI data were obtained at 25 °C using a ForteBio-Sartorius Octet RED 384 instrument and Octet 384-well tilted bottom microplate (18-5080, Sartorius). […] Kinetic data was analysed using buffer subtracted wavelength shift and a 1:1 binding model.

Assay [8] has as its system CCL5. The note with it: cited from earlier work. An excerpt:
Peptides and peptidomimetics that mimic the activity of parental proteins have been successfully developed from several naturally occurring proteins into viable clinical therapeutics. Exemplars include the peptidomimetics captopril, eptifibatide and tirofiban, which are based on peptides derived from the snake venom toxins bradykinin-potentiating-peptide, barbourin and echistatin respectively. […] Inspired by these exemplars, by usi ...

Assay [9] addresses T5, CXCL6 (Homo sapiens, UniProt P80162).
T5 construct: purchased Peprotech 300-41
Description: CXCL6-induced Jurkat CXCR1 (J:CXCR1) migration (chemotaxis). Type of assay: cell-based. The procedure: (§5) For THP1 migration assays, 300000 cells/well were added to the top chamber of a 5-µm 96-well Transwell insert (3387, Corning) in 50 µL of cell migration media (RPMI-1640 (R0883, Sigma), 0.5% FBS (F9665, Sigma), 4 mM L-Glutamine (G7513, Sigma), 0.05% DMSO (D4540, Sigma)). The bottom chamber contained 150 µL of migration media with chemokine and peptide added. Cells were migrated at 37 °C in 5% CO2 for 4 h.
J:CXCR1 migration assays were performed exactly as for THP1 assays except that a 3-µm Transwell insert (3385, Corning) was used.
Following the migration assay the migration plate was shaken at 850 RPM for 10 min, and media from bottom plate transferred to a round-bottomed 96 well plate (353910, Falcon). Cell counts were determined using an Atune NxT Flow Cytometer Plate Reader with Cytkick autosampler (ThermoFisher), based on cell size parameters FSC-H/SSC-H, and a previously defined gate setting for each cell type (Supplementary Fig. 11). […] Statistical significances between control and experimental groups was evaluated using Dunnett’s test[73]. […] EC80 was calculated by fitting a chemokine dose-response curve with a 3-parameter log-logistic model (fixing the top to 100%) using the function “drm” in R-package drc[74]. IC50 was calculated by fitting an inhibitor response curve with a 4-parameter log-logistic model using the function “drm” in R-package drc[74]. […]

The target of assay [10] is T3, CCL5. In words: CCL5-induced THP1 cell migration (chemotaxis). Type of assay: cell-based. The procedure:
as §5
(§6) Following the migration assay the migration plate was shaken at 850 RPM for 10 min, and media from bottom plate transferred to a round-bottomed 96 well plate (353910, Falcon). Cell counts were determined using an Atune NxT Flow Cytometer Plate Reader with Cytkick autosampler (ThermoFisher), based on cell size parameters FSC-H/SSC-H, and a previously defined gate setting for each cell type (Supplementary Fig. 11). All experiments were performed as three technical and three biological replicates. Statistical significances between control and experimental groups was evaluated using Dunnett’s test[73]. IC50 experiments were performed at the EC80 dose of chemokine. EC80 was calculated by fitting a chemokine dose-response curve with a 3-parameter log-logistic model (fixing the top to 100%) using the function “drm” in R-package drc[74]. IC50 was calculated by fitting an inhibitor response curve with a 4-parameter log-logistic model using the function “drm” in R-package drc[74]. […]

For assay [11], the target named is T2, CCL7. In words: CCL7-induced THP1 cell migration (chemotaxis). Type of assay: cell-based. The procedure:
as §5, §6

Assay [12] concerns the target T1, CXCL10. Description: CXCL10-induced activated T cell (ATC) migration (chemotaxis). The assay is classed as cell-based. The procedure: For activated-T cell migration assays, 100000 cells/well were added to the top chamber of a 3-µm Transwell insert (3385, Corning) in 50 µL of migration media (HBSS (14025-092, Life Technologies), 0.1% protease free bovine serum albumin (A7030, Sigma), 0.05% DMSO (D4540, Sigma)). The bottom chamber contained 150 µL of migration media with chemokine and peptide added. Cells were migrated at 37 °C in 5% CO2 for 2 h.
as §6

In assay [13] the target is T4, CCL8. Description: CCL8-induced THP1 cell migration (chemotaxis). Type of assay: cell-based. How it is done:
as §5
Following the migration assay the migration plate was shaken at 850 RPM for 10 min, and media from bottom plate transferred to a round-bottomed 96 well plate (353910, Falcon). Cell counts were determined using an Atune NxT Flow Cytometer Plate Reader with Cytkick autosampler (ThermoFisher), based on cell size parameters FSC-H/SSC-H, and a previously defined gate setting for each cell type (Supplementary Fig. 11). All experiments were performed as three technical and three biological replicates. Statistical significances between control and experimental groups was evaluated using Dunnett’s test[73]. IC50 experiments were performed at the EC80 dose of chemokine. EC80 was calculated by fitting a chemokine dose-response curve with a 3-parameter log-logistic model (fixing the top to 100%) using the function “drm” in R-package drc[74]. IC50 was calculated by fitting an inhibitor response curve with a 4-parameter log-logistic model using the function “drm” in R-package drc[74]. All IC50 values reported had p-value < 0.05.

T5 sequence (P80162 38-114): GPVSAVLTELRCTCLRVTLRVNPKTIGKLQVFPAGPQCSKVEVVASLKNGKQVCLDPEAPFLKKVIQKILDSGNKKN
T2 sequence (P80098 24-99): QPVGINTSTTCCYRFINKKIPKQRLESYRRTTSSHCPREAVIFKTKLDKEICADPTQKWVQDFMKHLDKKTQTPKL

On to “sHD2: HD2 generated as HIS:SUMO fusion protein in E.coli for BLI (EEDDYTAYAPLTCYFT; also: HIS:SUMO fusion protein, side not given here)”, for which the “specific binding in BLI cross-binding screen” value is “specifically and reproducibly bind” in assay [1]; “specifically and reproducibly bind” in assay [2]; “specifically and reproducibly bind” in assay [3]; “specifically and reproducibly bind” in assay [4]; “specifically and reproducibly bind” in assay [5]; “specifically and reproducibly bind” in assay [6]. Moreover, the “specific binding in BLI cross-binding screen” value in assay [7] (1 μM chemokine, fusion 1 mg/mL immobilised, specific if Rmax exceeded 3 times Rmax of SUMO:HD2SCR, two independent experiments) was “specifically and reproducibly bind”. Also, the Kd (as a rule, a measure of binding affinity in units of concentration) in assay [7] (Expt ID E12, N = 5 dose responses with good fits, BLI kinetic assay, 1:1 binding model, 25 °C) was found to be 0.143 µM.
With EEEDDYTAYAPLTAYFTN [Ev4Glu^14-Asn^31], the “inhibition of CCL5 function” value in assay [8] was “inhibits CCL5 function”.
Turning to EEDDYTAYAPLTCYFT-NH2 [HD2], the IC50 (in general, the midpoint of a concentration-inhibition curve) in assay [9] stood at 7.1 µM; in assay [9] (IC50, median, median of biological replicates (n = 3), Fig. 6k, J:CXCR1 cells, chemokine at EC80), 14 µM; in [10] it was 0.79 µM; in assay [11] it was 5.7 µM; in assay [12], 2.5 µM; in assay [13] it was 0.019 µM.
